# In patent US8927587B2, “Chemical compounds” (Pfizer Limited, priority 2012, dated 2015):
# Target: T1, hNav1.8 (Homo sapiens, UniProt Q9Y5Y9)
# T1 construct: host or cells: HEK cells, stably transfected
# Experiment: hNav1.8 whole-cell patch-clamp electrophysiology (conventional or PatchXpress 7000) in stably transfected HEK cells
# Type: cell-based
# Settings: estimated IC50 calculated from single point % inhibition; HEK cells expressing hNav1.8; 8 sec prepulse to V1/2, 20 msec step to 0 mV; average of replicates; read-out: Nav1.8 EIC50
# Description: The ability of the benzimidazole derivatives of the formula (I) to inhibit the Nav1.8 channel may be measured using the assay described below.
# HEK cells stably transfected with hNav1.8, purchased from Millipore (Millipore Corp., Billerica, Mass. 01821), were maintained according to manufacturer's instructions. For electrophysiological studies, cells were removed from the culture flask by brief trypsinization and re-plated at low density onto glass cover slips. Cells were typically used for electrophysiological experiments within 24 to 72 h after plating.
# Cover slips containing HEK cells expressing hNav1.8 were placed in a bath on the stage of an inverted microscope and perfused (approximately 1 ml/min) with extracellular solution of the following composition: 138 mM NaCl, 2 mM CaCl2, 5.4 mM KCl, 1 mM MgCl2, 10 mM glucose, and 10 mM HEPES, pH 7.4, with NaOH. […] The osmolarity of the extracellular and intracellular solutions was 300 mOsm/kg and 295 mOsm/kg, respectively. All recordings were made at room temperature (22-24° C.) using AXOPATCH 200B amplifiers and PCLAMP software (Axon Instruments, Burlingame, Calif.).
# hNav1.8 currents in HEK cells were measured using the whole-cell configuration of the patch-clamp technique (Hamill et al., 1981). Uncompensated series resistance was typically 2 to 5 mega ohms and >85% series resistance compensation was routinely achieved. As a result, voltage errors were negligible and no correction was applied. Current records were acquired at 20 to 50 KHz and filtered at 5 to 10 KHz.
# HEK cells stably transfected with hNav1.8 were viewed under Hoffman contrast optics and placed in front of an array of flow pipes emitting either control or compound-containing extracellular solutions. All compounds were dissolved in dimethyl sulfoxide to make 10 mM stock solutions, which were then diluted into extracellular solution to attain the final concentrations desired.
# The voltage-dependence of inactivation was determined by applying a series of depolarizing prepulses (8 sec long in 10 mV increments) from a negative holding potential. The voltage was then immediately stepped to 0 mV to assess the magnitude of the sodium current. Currents elicited at 0 mV were plotted as a function of prepulse potential to allow estimation of the voltage at which 50% of the channels were inactivated (midpoint of inactivation or V1/2). Compounds were tested for their ability to inhibit hNav1.8 sodium channels by activating the channel with a 20 msec voltage step to 0 mV following an 8 second conditioning prepulse to the empirically determined V1/2. Compound effect (% inhibition) was determined by difference in current amplitude before and after application of test compounds. For ease of comparison, “estimated IC50” values were calculated from single point electrophysiology data by the following equation, (tested concentration, uM)×(100-% inhibition/% inhibition). Inhibition values<20% and >80% were excluded from the calculation.
# In some cases electrophysiological assays were conducted with PatchXpress 7000 hardware and associated software (Molecular Devices Corp). All assay buffers and solutions were identical to those used in conventional whole-cell voltage clamp experiments described above. hNav1.8 cells were grown as above to 50%-80% confluency and harvested by trypsinization. Trypsinized cells were washed and resuspended in extracellular buffer at a concentration of 1×10^6 cells/ml. The onboard liquid handling facility of the PatchXpress was used for dispensing cells and application of test compounds. Determination of the voltage midpoint of inactivation was as described for conventional whole-cell recordings. Cells were then voltage-clamped to the empirically determined V1/2 and current was activated by a 20 msec voltage step to 0 mV.
# Estimated IC50 values for the compounds of formula (I) exemplified above are as follows. […]
# T1 sequence (Q9Y5Y9 whole entry): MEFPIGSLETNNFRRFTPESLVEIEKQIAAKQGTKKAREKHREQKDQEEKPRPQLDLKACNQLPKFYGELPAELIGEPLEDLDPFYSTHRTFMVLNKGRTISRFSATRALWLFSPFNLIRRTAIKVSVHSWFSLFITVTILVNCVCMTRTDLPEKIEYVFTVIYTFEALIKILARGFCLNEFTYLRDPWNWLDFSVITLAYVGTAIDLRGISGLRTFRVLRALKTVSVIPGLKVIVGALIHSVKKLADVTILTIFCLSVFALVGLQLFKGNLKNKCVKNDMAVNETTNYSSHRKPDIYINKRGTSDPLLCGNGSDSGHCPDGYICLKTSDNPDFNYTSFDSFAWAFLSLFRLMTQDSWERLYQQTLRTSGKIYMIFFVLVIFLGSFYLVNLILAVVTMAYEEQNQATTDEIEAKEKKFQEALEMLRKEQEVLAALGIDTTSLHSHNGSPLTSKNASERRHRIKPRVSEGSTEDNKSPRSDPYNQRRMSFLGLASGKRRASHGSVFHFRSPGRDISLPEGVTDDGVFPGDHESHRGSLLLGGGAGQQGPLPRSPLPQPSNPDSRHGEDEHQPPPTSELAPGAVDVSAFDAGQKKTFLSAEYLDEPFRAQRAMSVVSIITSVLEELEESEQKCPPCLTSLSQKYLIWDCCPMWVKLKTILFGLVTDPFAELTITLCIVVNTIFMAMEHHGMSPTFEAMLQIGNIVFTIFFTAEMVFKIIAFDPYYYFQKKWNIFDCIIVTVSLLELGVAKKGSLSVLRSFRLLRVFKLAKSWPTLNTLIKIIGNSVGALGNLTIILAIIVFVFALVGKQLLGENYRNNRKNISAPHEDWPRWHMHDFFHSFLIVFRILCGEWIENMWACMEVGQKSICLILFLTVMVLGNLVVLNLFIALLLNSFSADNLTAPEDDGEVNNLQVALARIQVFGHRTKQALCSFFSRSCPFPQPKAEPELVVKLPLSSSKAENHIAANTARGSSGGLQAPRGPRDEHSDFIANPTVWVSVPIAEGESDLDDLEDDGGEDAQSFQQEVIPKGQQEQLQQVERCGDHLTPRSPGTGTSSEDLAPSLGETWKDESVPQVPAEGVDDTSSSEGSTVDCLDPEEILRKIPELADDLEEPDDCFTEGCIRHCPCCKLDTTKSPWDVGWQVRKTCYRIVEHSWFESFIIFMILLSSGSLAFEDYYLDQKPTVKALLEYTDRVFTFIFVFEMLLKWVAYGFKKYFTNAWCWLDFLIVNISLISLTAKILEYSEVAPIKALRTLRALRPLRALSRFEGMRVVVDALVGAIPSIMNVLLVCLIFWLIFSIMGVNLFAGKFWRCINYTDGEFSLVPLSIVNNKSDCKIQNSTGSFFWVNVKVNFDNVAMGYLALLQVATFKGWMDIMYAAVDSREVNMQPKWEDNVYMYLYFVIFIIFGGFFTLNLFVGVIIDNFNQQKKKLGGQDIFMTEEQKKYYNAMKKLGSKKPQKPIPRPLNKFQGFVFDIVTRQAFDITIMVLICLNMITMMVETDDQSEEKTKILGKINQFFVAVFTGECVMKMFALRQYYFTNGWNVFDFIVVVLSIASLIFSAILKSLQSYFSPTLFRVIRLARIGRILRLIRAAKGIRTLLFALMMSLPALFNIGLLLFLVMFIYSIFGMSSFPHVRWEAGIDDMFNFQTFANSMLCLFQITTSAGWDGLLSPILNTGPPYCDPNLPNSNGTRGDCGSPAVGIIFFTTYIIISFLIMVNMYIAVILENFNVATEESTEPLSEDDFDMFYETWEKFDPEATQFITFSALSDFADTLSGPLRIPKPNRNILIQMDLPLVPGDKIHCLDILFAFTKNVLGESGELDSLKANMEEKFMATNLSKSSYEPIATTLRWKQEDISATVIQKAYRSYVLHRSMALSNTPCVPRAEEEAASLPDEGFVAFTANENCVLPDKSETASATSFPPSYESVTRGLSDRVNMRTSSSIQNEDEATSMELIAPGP
row,Structure (SMILES),IC50
1,"CCC(C)(C)c1ccc2[nH]c([C@@H](C)N)nc2c1 [Example 41, (1R)-1-[5-(2-Methylbutan-2-yl)-1H-benzimidazol-2-yl]ethanamine]",648 nM
2,"CC(C)C[C@@H](N)c1nc2cc(-c3ccc(C#N)cc3)ccc2[nH]1 [Example 47, 4-{2-[(1R)-1-Amino-3-methylbutyl]-1H-benzimidazol-5-yl}benzonitrile]",781 nM
3,"N#Cc1ccc(-c2ccc3[nH]c([C@@H]4C[C@H](O)CN4)nc3c2)cc1 [Example 49, 4-{2-[(2S,4S)-4-Hydroxypyrrolidin-2-yl]-1H-benzimidazol-5-yl}benzonitrile]",1050 nM
4,"N#Cc1ccc(-c2ccc3[nH]c([C@@H]4CCCCN4)nc3c2)cc1 [Example 51, 4-{2-[(2S)-Piperidin-2-yl]-1H-benzimidazol-5-yl}benzonitrile]",3130 nM
5,"CC(C)[C@H](N)c1nc2cc(-c3ccc(C#N)cc3)ccc2[nH]1 [Example 52, 4-{2-[(1S)-1-amino-2-methylpropyl]-1H-benzimidazol-5-yl}benzonitrile]",703 nM
6,"CC[C@@H](N)c1nc2cc(-c3ccc(C#N)cc3)ccc2[nH]1 [Example 53, 4-{2-[(1R)-1-aminopropyl]-1H-benzimidazol-5-yl}benzonitrile]",562 nM
7,"C[C@@H](N)c1nc2cc(-c3ccc(C#N)cc3)ccc2[nH]1 [Example 54, 4-{2-[(1R)-1-aminoethyl]-1H-benzimidazol-5-yl}benzonitrile]",662 nM
8,"CC1(C)[C@@H]2[C@@H](c3nc4cc(-c5ccc(C#N)cc5)ccc4[nH]3)NC[C@@H]21 [Example 55, 4-{2-[(1R,2S,5S)-6,6-dimethyl-3-azabicyclo[3.1.0]hex-2-yl]-1H-benzimidazol-5-yl}benzonitrile]",77.4 nM
9,"C[C@H](O)[C@@H](N)c1nc2cc(-c3ccc(C#N)cc3)ccc2[nH]1 [Example 62, 4-{2-[(1S,25)-1-amino-2-hydroxypropyl]-1H-benzimidazol-5-yl}benzonitrile]",580 nM
10,"C[C@H](N)c1nc2cc(-c3ccc(C#N)cc3)ccc2[nH]1 [Example 64, 4-{2-[(1S)-1-aminoethyl]-1H-benzimidazol-5-yl}benzonitrile]",1000 nM
11,"CCCCc1ccc2[nH]c(C(C)(C)N)nc2c1 [Example 65, 2-(5-Butyl-1H-benzimidazol-2-yl)propan-2-amine]",2710 nM
12,"CC(C)(N)c1nc2cc(C3CCCCC3)ccc2[nH]1 [Example 66, 2-(5-Cyclohexyl-1H-benzimidazol-2-yl)propan-2-amine]",1000 nM
13,"CCCc1ccc2[nH]c(C(C)(C)N)nc2c1 [Example 69, 2-(5-Propyl-1H-benzimidazol-2-yl)propan-2-amine]",3900 nM
14,"CC(C)(N)c1nc2cc(-c3cc(F)cc(C#N)c3)ccc2[nH]1 [Example 70, 3-[2-(1-Amino-1-methylethyl)-1H-benzimidazol-5-yl]-5-fluorobenzonitrile]",3160 nM
15,"CC(C)(N)c1nc2cc(-c3cccc(C#N)c3)ccc2[nH]1 [Example 72, 3-[2-(1-Amino-1-methylethyl)-1H-benzimidazol-5-yl]benzonitrile]",2490 nM

# Continued by falling IC50, values first:
row,IC50,Structure (SMILES)
1,3930 nM,"CC(C)(N)c1nc2cc(-c3ccc(Cl)c(C#N)c3)ccc2[nH]1 [Example 71, 5-[2-(1-Amino-1-methylethyl)-1H-benzimidazol-5-yl]-2-chlorobenzonitrile]"
2,2530 nM,"CC(C)(C)[C@H](N)c1nc2cc(-c3ccc(C#N)cc3)ccc2[nH]1 [Example 57, 4-{2-[(1S)-1-amino-2,2-dimethylpropyl]-1H-benzimidazol-5-yl}benzonitrile]"
3,1840 nM,"N#Cc1ccc(-c2ccc3[nH]c([C@H]4NCC[C@@H]4O)nc3c2)cc1 [Example 50, 4-{2-[(2R,3S)-3-Hydroxypyrrolidin-2-yl]-1H-benzimidazol-5-yl}benzonitrile]"
4,1360 nM,"CC(C)(N)c1nc2cc(-c3ccccc3C#N)ccc2[nH]1 [Example 74, 2-[2-(1-Amino-1-methylethyl)-1H-benzimidazol-5-yl]benzonitrile]"
5,890 nM,"N#Cc1ccc(-c2ccc3[nH]c([C@H](N)CC(N)=O)nc3c2)cc1 [Example 44, (3R)-3-Amino-3-[5-(4-cyanophenyl)-1H-benzimidazol-2-yl]propanamide]"
6,842 nM,"N#Cc1ccc(-c2ccc3[nH]c([C@H]4C[C@@H](O)CN4)nc3c2)cc1 [Example 43, 4-{2-[(2R,4R)-4-Hydroxypyrrolidin-2-yl]-1H-benzimidazol-5-yl}benzonitrile]"
7,827 nM,"CC(C)(N)c1nc2cc(-c3cccc(Cl)c3C#N)ccc2[nH]1 [Example 73, 2-[2-(1-Amino-1-methylethyl)-1H-benzimidazol-5-yl]-6-chlorobenzonitrile]"
8,698 nM,"N#Cc1ccc(-c2ccc3[nH]c([C@@H]4C[C@H](F)CN4)nc3c2)cc1 [Example 61, 4-{2-[(2S,4S)-4-fluoropyrrolidin-2-yl]-1H-benzimidazol-5-yl}benzonitrile]"
9,650 nM,"CCC(C)(C)c1ccc2[nH]c([C@H]3NCC[C@@H]3O)nc2c1 [Example 37, (2R,3S)-2-[5-(2-Methylbutan-2-yl)-1H-benzimidazol-2-yl]pyrrolidin-3-ol]"
10,635 nM,"CCC(C)(C)c1ccc2[nH]c(C(C)(C)N)nc2c1 [Example 68, 2-[5-(2-Methylbutan-2-yl)-1H-benzimidazol-2-yl]propan-2-amine]"
11,537 nM,"CCCC[C@@H](N)c1nc2cc(-c3ccc(C#N)cc3)ccc2[nH]1 [Example 58, 4-{2-[(1R)-1-aminopentyl]-1H-benzimidazol-5-yl}benzonitrile]"
12,469 nM,"CC(C)(C)[C@@H](N)c1nc2cc(-c3ccc(C#N)cc3)ccc2[nH]1 [Example 48, 4-{2-[(1R)-1-Amino-2,2-dimethylpropyl]-1H-benzimidazol-5-yl}benzonitrile]"
13,227 nM,"N#Cc1ccc(-c2ccc3[nH]c([C@H](N)c4ccccc4)nc3c2)cc1 [Example 36, 4-{2-[(R)-Amino(phenyl)methyl]-1H-benzimidazol-5-yl}benzonitrile]"
14,203 nM,"N#Cc1ccc(-c2ccc3[nH]c([C@@H](N)CC(N)=O)nc3c2)cc1 [Example 45, (3S)-3-Amino-3-[5-(4-cyanophenyl)-1H-benzimidazol-2-yl]propanamide]"
15,166 nM,"CCCC[C@H](N)c1nc2cc(-c3ccc(C#N)cc3)ccc2[nH]1 [Example 60, 4-{2-[(1S)-1-aminopentyl]-1H-benzimidazol-5-yl}benzonitrile]"
16,122 nM,"N#Cc1ccc(-c2ccc3[nH]c([C@@H](N)c4ccccc4)nc3c2)cc1 [Example 42, 4-{2-[(S)-Amino(phenyl)methyl]-1H-benzimidazol-5-yl}benzonitrile]"
17,105 nM,"N#Cc1ccc(-c2ccc3[nH]c(C4(N)CCCC4)nc3c2)cc1 [Example 59, 4-[2-(1-aminocyclopentyl)-1H-benzimidazol-5-yl]benzonitrile]"
18,97.5 nM,"CC(C)[C@@H](N)c1nc2cc(-c3ccc(C#N)cc3)ccc2[nH]1 [Example 56, 4-{2-[(1R)-1-amino-2-methylpropyl]-1H-benzimidazol-5-yl}benzonitrile]"
19,77.1 nM,"C[C@@H](O)[C@H](N)c1nc2cc(-c3ccc(C#N)cc3)ccc2[nH]1 [Example 40, 4-{2-[(1R,2R)-1-Amino-2-hydroxypropyl]-1H-benzimidazol-5-yl}benzonitrile]"
20,54.2 nM,"CCC(C)(C)c1ccc2[nH]c([C@@H](N)[C@@H](C)O)nc2c1 [Example 39, (1R,2R)-1-Amino-1-[5-(2-methylbutan-2-yl)-1H-benzimidazol-2-yl]propan-2-ol]"
21,41.9 nM,"CCC(C)(C)c1ccc2[nH]c([C@@H](N)[C@@H](C)OC)nc2c1 [Example 38, (1R,2R)-2-Methoxy-1-[5-(2-methylbutan-2-yl)-1H-benzimidazol-2-yl]propan-1-amine]"
